Common to all, as to format: cell-based
The target of test [1] is T1, adenosine A1 receptor (Homo sapiens, UniProt P30542).
T1 construct: expressed in transfected cells; host or cells: CHO (Chinese Hamster Ovary)
T1 sequence (P30542 1-326): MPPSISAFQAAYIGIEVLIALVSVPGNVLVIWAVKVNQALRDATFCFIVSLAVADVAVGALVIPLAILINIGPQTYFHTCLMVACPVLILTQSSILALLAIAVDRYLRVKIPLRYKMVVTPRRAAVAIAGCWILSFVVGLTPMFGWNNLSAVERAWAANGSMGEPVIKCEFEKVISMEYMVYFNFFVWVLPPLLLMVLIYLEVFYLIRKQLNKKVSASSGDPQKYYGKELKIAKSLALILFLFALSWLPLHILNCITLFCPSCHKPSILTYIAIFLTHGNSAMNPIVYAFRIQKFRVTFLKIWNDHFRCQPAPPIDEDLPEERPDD
In words: Indirect determination of adenosine agonism by way of gene expression (luciferase, CHO cells), A1. As to conditions: CHO cells stably transfected with A1 receptor cDNA; 1 μM forskolin; 50% inhibition of luciferase answer. An excerpt:
(§1) B-1. Indirect Determination of the Adenosine Agonism by Way of Gene Expression
(§2) Cells of the CHO (Chinese Hamster Ovary) permanent cell line are transfected stably with the cDNA for the adenosine receptor subtypes A1, A2a and A2b. The adenosine A1 receptors are coupled to the adenylate cyclase by way of Gi proteins, while the adenosine A2a and A2b receptors are coupled by way of Gs proteins. In correspondence with this, the formation of cAMP in the cell is inhibited or stimulated, respectively. After that, expression of the luciferase is modulated by way of a cAMP-dependent promoter. The luciferase test is optimized, with the aim of high sensitivity and reproducibility, low variance and good suitability for implementation on a robot system, by varying several test parameters, such as cell density, duration of the growth phase and the test incubation, forskolin concentration and medium composition. The following test protocol is used for pharmacologically characterizing cells and for the robot-assisted substance screening:
(§3) The stock cultures are grown, at 37° C. and under 5% CO2, in DMEM/F12 medium containing 10% FCS (foetal calf serum) and in each case split 1:10 after 2-3 days. The test cultures are seeded in 384-well plates with 2000 cells per well and grown at 37° C. for approx. 48 hours. The medium is then replaced with a physiological sodium chloride solution (130 mM sodium chloride, 5 mM potassium chloride, 2 mM calcium chloride, 20 mM HEPES, 1 mM magnesium chloride hexahydrate, 5 mM sodium bicarbonate, pH 7.4). The substances to be tested, which are dissolved in DMSO, are pipetted into the test cultures (maximum final concentration of DMSO in the test mixture: 0.5%) in a dilution series of from 5×10^−11M to 3×10^−6M (final concentration). 10 minutes later, forskolin is added to the A1 cells and all the cultures are subsequently incubated at 37° C. for four hours. After that, 35 μl of a solution which is composed of 50% lysis reagent (30 mM disodium hydrogenphosphate, 10% glycerol, 3% TritonX100, 25 mM TrisHCl, 2 mM dithiotreitol (DTT), pH 7.8) and 50% luciferase substrate solution (2.5 mM ATP, 0.5 mM luciferin, 0.1 mM coenzyme A, 10 mM tricine, 1.35 mM magnesium sulphate, 15 mM DTT, pH 7.8) are added to the test cultures, which are shaken for approx. 1 minute and the luciferase activity is measured using a camera system. The EC50 values are determined, i.e., the concentrations at which 50% of the luciferase answer is inhibited in the case of the A1 cell, and, respectively, 50% of the maximum stimulation with the corresponding substance is achieved in the case of the A2b and A2a cells. […] Pharmacol., 357 (1998), 1-9).
(§4) Table 18 below lists the EC50 values of representative working examples for the receptor stimulation on adenosine A1, A2a and A2b receptor subtypes: […]

Test [2] has as its target T2, adenosine A2a receptor (Homo sapiens, UniProt P29274).
T2 construct: expressed in transfected cells; host or cells: CHO (Chinese Hamster Ovary)
In words: Indirect determination of adenosine agonism by way of gene expression (luciferase, CHO cells), A2a. Particulars: CHO cells stably transfected with A2a receptor cDNA; 50% of maximum luciferase stimulation.
From the text: as §1, §2, §3, §4

Test [3] has as its target T3, adenosine A2b receptor (Homo sapiens, UniProt P29275).
T3 construct: expressed in transfected cells; host or cells: CHO (Chinese Hamster Ovary)
T3 sequence (P29275 1-332): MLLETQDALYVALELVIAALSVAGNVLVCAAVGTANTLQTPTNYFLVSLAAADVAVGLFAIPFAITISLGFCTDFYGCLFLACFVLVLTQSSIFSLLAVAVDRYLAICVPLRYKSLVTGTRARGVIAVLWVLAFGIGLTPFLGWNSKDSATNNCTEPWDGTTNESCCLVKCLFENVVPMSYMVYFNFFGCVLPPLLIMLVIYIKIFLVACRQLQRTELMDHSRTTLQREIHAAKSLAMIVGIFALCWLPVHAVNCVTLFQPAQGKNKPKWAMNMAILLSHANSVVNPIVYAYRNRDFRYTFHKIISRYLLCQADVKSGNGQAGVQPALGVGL
In words: Indirect determination of adenosine agonism by way of gene expression (luciferase, CHO cells), A2b. Particulars: CHO cells stably transfected with A2b receptor cDNA; 50% of maximum luciferase stimulation.
From the text: as §1, §2, §3, §4

T2 sequence (P29274 whole entry): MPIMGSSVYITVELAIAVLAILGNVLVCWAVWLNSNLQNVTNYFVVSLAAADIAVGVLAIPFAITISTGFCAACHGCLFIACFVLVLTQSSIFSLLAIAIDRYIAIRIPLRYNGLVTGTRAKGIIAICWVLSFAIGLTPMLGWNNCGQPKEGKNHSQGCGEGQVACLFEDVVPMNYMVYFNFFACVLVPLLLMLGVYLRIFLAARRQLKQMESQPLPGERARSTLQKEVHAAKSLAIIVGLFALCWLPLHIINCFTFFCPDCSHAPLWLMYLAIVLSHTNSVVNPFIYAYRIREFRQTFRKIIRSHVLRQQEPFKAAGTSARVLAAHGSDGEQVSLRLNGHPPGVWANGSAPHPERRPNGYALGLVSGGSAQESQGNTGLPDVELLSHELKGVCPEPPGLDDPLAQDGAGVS

Consider `N#Cc1c(SCc2coc(-c3ccc(Cl)cc3)n2)nc(N2CC(O)C2)c(C#N)c1-c1ccc(OCCO)cc1` [Example 128], for which the EC50 in test [1] is 0.1 nM; in test [2] it was 1.05 µM; in test [3], 0.237 µM.

As usually defined, the EC50 is the concentration at which the effect is half-maximal. Low readings indicate an effect from little substance, high ones a need for much substance.

The record behind these values is US8440700B2, “Substituted aryloxazoles and their use” (Bayer Intellectual Property GmbH, priority 2007, dated 2013).
